Data from publication PMC4972829, “Olfactory Receptors Modulate Physiological Processes in Human Airway Smooth Muscle Cells” (Frontiers in Physiology, 2016).

Tests used:
[1] = biological target: T1, OR1D2 (Homo sapiens, UniProt P34982); test: fura-2 calcium imaging in native human airway smooth muscle cells; blocked by OR1D2 antagonist undecanal; cAMP assay; format: cell-based
T1 sequence (P34982 1-312): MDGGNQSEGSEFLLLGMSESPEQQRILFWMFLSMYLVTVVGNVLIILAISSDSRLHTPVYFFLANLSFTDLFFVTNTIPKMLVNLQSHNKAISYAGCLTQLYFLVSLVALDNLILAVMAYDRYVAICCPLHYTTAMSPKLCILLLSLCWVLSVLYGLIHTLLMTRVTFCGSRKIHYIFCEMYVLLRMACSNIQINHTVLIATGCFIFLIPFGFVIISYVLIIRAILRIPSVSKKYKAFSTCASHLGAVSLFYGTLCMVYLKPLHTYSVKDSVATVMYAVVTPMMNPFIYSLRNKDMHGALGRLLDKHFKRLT

[2] = biological target: T2, OR2AG1 (Homo sapiens, UniProt Q9H205); test: fura-2 calcium imaging in native human airway smooth muscle cells; cAMP assay (text prints EC50 […], figure legend […]); format: cell-based
T2 sequence (Q9H205 1-316): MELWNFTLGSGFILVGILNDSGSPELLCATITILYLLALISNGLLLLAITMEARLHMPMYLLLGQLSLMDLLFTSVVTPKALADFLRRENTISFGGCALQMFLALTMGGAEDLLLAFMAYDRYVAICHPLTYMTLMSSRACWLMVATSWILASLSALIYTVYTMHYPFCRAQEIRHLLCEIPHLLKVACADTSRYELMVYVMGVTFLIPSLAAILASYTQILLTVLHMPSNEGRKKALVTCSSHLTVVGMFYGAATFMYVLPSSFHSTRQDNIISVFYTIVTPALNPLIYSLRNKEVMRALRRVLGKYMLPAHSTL

EC50 [1] | EC50 [2] | SMILES
0.504 µM |  | CC(C)(C)c1ccc(CCC=O)cc1 [bourgeonal]
 | 253 µM | CCCCCOC(=O)CCC [amyl butyrate]
